Reference: US20030187007A1, “Inhibitors of protein kinase for the treatment of disease” (priority 2001, published 2003)
Structures can show the parent of a compound that is named as a salt.

Tests used:
[1] = target: CDK2 complexed with cyclin A (Homo sapiens, UniProt P24941); assay: Cyclin dependent kinase activity assay, phosphorylation of synthetic peptide PKTPKKAKKLRRR; type: biochemical; conditions: 0.1 mM ATP, read-out: CDK 2 Activity*
Procedure: (§1) The assay of cyclin dependent kinase activity was determined by monitoring the phosphorylation of a synthetic peptide, PKTPKKAKKLRRR. The assay mixture contained 0.1 mM cold ATP, ^33P-γ-ATP (2000-4000 cpm/μL), 0.1 mM peptide, 1 mM DTT, and 10 mM MgCl2 in 100 mM HEPES buffer pH 7.4. The assay mixture, along with inhibitor and CDK enzyme (0.3-0.4 U/mL; either CDK5 complexed with p25, CDK2 complexed with complexed with cyclin A), was mixed together in a microtiter plate in a final volume of 40 μL, sealed and incubated for 2 hours at 30° C. Following incubation, a 15 μL aliquot was added to a Whatman P81 filtration plate containing 100 μL 0.5% phosphoric acid. This mixture was allowed to stand for 5 minutes prior to filtration on a vacuum manifold. The filter plate was washed with 5 successive additions of 300 μL 0.5% phosphoric acid. The filtration plate was air dried for 10 minutes before sealing the bottom. After addition of scintillation fluid to the sealed plate, phosphorylated peptide was quantified in a scintillation counter.

CDK5 complexed with p25 = CDK5 complexed with p25 (Homo sapiens, UniProt Q00535); assay: as above; type: biochemical; conditions: CDK5 complexed with p25, 0.1 mM ATP; read-out: CDK 5 Activity*
Procedure: as §1

CDK5 complexed with p25, sequence (Q00535 whole entry): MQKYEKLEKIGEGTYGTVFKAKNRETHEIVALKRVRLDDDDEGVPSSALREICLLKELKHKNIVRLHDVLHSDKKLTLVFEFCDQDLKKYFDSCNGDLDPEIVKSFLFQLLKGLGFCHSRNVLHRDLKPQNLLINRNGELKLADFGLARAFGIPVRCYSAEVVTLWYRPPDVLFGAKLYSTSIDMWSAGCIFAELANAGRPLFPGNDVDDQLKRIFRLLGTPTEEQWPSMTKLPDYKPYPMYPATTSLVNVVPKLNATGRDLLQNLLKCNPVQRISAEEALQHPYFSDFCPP
CDK5 complexed with p25, sequence (Q15078 99-307 partner limits assumed): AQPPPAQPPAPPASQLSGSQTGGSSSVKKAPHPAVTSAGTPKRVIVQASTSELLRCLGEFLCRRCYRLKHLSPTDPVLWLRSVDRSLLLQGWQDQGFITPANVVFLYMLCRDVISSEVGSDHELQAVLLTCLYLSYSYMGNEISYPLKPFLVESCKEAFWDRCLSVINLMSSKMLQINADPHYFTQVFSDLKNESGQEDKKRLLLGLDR

| IC50 [1] [nM] | IC50 (CDK5 complexed with p25) [nM] | Compound |
| --- | --- | --- |
| 2000 to 5000 | 500 to 2000 | NC(=S)N/N=C/c1cc(Br)ccc1O [Example 2, 5-Bromosalicylaldehyde thiosemicarbazone] |
| 2000 to 5000 | 500 to 2000 | NC(=O)N/N=C/c1cc(Br)ccc1O [Example 3, 5-Bromosalicylaldehyde semicarbazone hydrochloride] |
| 500 to 2000 | < 500 | NC(=S)N/N=C/c1cc(-c2ccccc2)ccc1O [Example 4, 5-Phenylsalicylaldehyde thiosemicarbazone] |
| 500 to 2000 | < 500 | NC(=O)N/N=C/c1cc(-c2ccccc2)ccc1O [Example 5, 5-Phenylsalicylaldehyde semicarbazone hydrochloride] |
| 2000 to 5000 | 2000 to 5000 | COc1cccc(-c2ccc(O)c(/C=N/NC(N)=S)c2)c1 [Example 6, 5-(3-Methoxyphenyl)salicylaldehyde thiosemicarbazone] |
| > 5000 | 2000 to 5000 | N#Cc1cccc(-c2ccc(O)c(/C=N/NC(N)=S)c2)c1 [Example 7, 5-(3-Cyanophenyl)salicylaldehyde thiosemicarbazone] |
| > 5000 | > 5000 | NC(=S)N/N=C/c1cc(-c2cccc(CO)c2)ccc1O [Example 8, 5-(3-Hydroxymethylphenyl)salicylaldehyde thiosemicarbazone] |
| 2000 to 5000 | 500 to 2000 | NC(=O)N/N=C/c1cc(-c2cccc(CO)c2)ccc1O [Example 9, 5-(3-Hydroxymethylphenyl)salicylaldehyde semicarbazone hydrochloride] |
| > 5000 | > 5000 | NC(=S)N/N=C/c1cc(-c2ccc(CO)cc2)ccc1O [Example 10, 5-(4-Hydroxymethylphenyl)salicylaldehyde thiosemicarbazone] |
| > 5000 | 2000 to 5000 | NC(=S)N/N=C/c1cc(-c2ccc([N+](=O)[O-])cc2)ccc1O [Example 11, 5-(4-Nitrophenyl)salicylaldehyde thiosemicarbazone] |
| > 5000 | 500 to 2000 | COC(=O)c1cccc(-c2ccc(O)c(/C=N/NC(N)=S)c2)c1 [Example 12, 5-(3-Methoxycarbonylphenyl)salicylaldehyde thiosemicarbazone] |
| 2000 to 5000 | > 5000 | COC(=O)c1cccc(-c2ccc(O)c(/C=N/NC(N)=O)c2)c1 [Example 13, 5-(3-Methoxycarbonylphenyl)salicylaldehyde semicarbazone hydrochloride] |
| 2000 to 5000 | 500 to 2000 | COc1ccc(-c2ccc(O)c(/C=N/NC(N)=S)c2)cc1F [Example 14, 5-(3-Fluoro-4-methoxyphenyl)salicylaldehyde thiosemicarbazone] |
| 500 to 2000 | 500 to 2000 | NC(=S)N/N=C/c1cc(-c2cccc(F)c2)ccc1O [Example 15, 5-(3-Fluorophenyl)salicylaldehyde thiosemicarbazone] |
| 2000 to 5000 | 500 to 2000 | NC(=S)N/N=C/c1cc(-c2ccc(F)cc2)ccc1O [Example 16, 5-(4-Fluorophenyl)salicylaldehyde thiosemicarbazone] |
| 500 to 2000 | 2000 to 5000 | NC(=S)N/N=C/c1cc(-c2cccc(C(=O)O)c2)ccc1O [Example 17, 5-(3-Carboxyphenyl)salicylaldehyde thiosemicarbazone] |
| < 500 | – | Cc1cc(-c2cc(-c3ccnc(N)n3)ccc2O)nc(N)n1 [Example 72] |
| < 500 | – | Nc1nccc(-c2ccc(O)c(-c3cc(Cl)nc(N)n3)c2)n1 [Example 73, 2-(2-Amino-4-chloro-pyrimidin-6-yl)-4-(2-aminopyrimidin-4-yl)-phenol] |
| < 500 | – | Nc1cc(-c2cc(-c3ccnc(N)n3)ccc2O)nc(N)n1 [Example 74, 2-(2,4-Diamino-pyrimidin-6-yl)-4-(2-aminopyrimidin-4-yl)-phenol] |
| < 500 | – | Nc1nc(-c2cc(-c3ccc(O)cc3)ccc2O)cc(N2CCCC2CO)n1 (stereo not drawn) [Example 79, 3-[2-Amino-6-(2R-hydroxymethyl-pyrrolidin-1-yl)-pyrimidin-4-yl]-biphenyl-4.4′-diol] |
